Source: patent US20260328779A1, “METHODS AND COMPOSITIONS FOR THE DIAGNOSIS AND TREATMENT OF IGA NEPHROPATHY” (Beth Israel Deaconess Medical Center, Inc., priority 2022, published 2026)
Entries after “also recorded” stand apart in the source; their conditions may differ.

Assays:
[1] = system: primary human renal mesangial cells; assay: Inhibition of anti-Tn CICs-stimulated mesangial cell proliferation (Ki-67); type: cell-based; settings: 30 min at RT
Experimental: […] of serum was mixed with […] of Tn(+)matrix beads or mock beads overnight at 4° C. (10 rpm). Supernatant was collected after pelleting the beads at 500×g for 30 sec at 4° C. After two rounds of such sequential anti-Tn CICs immunodepletion (serum-ID) and its control (serum-Mock), collected serum was filtered by syringe filter unit (Cat #SLHP033RS, Millipore Sigma) before use. Cells were cultured at ~90% confluency in 96-well plate, and starved in Mesangial cell media (Cat #4201) with 0.5% FBS (Cat #0010) and 0.05× mesangial cell growth supplement (MsCGS, Cat #4252) from ScienCell for 24 h at 37° C. prior to stimulation. Cells were stimulated with 5% serum-Mock, 5% serum-ID with or without exogenous anti-Tn CICs (50 ng/[…]/well, total) for 24 h at 37° C. incubator. Cells were fixed with 4% PFA with 0.05% Triton-X-100 in PBS for 20 min at 4° C. Fixed cells were blocked with 5% (vol/vol) goat serum in PBS for 1 h at 4° C., and incubated with anti-Ki-67 antibody (SP6, rabbit IgG, Cat #CRM325B, Biocare Medical, diluted to 1:50) in PBS for 1 h at 4° C. Cells were washed 3× with chilled PBS, and incubated with Alexa Fluor #488-goat anti-rabbit IgG (Cat #A27034, Thermo Fisher Scientific) at 1:400 in PBS for 1 h at 4° C. in the dark. Cells were washed 3× with chilled PBS, and stained with DAPI (diluted to 0.1 mM) in PBS for 10 min at RT, and analyzed using a microscope (AMG EVOS FL digital inverted microscope, Fisher Scientific, ×400 magnification). For inhibition assay, anti-Tn CICs was preincubated with 100 mM α-methylGalNAc, or α-methylGlcNAc in PBS for 30 min at RT. Serum from three healthy controls (C3, C6, and pooled C1-C10; Cmix) and three IgAN (P5, P10, and pooled P1-P10; Pmix) were used in this assay. […] of serum with IgAN (P1-P20) or healthy control (C1-C20) was analyzed on SDS-PAGE gel, and stained with Coomassie.

anti-Tn IgM = assay: Inhibition of anti-Tn antibody binding to Tn glycopeptide array; parameters: species or system human; settings: glycomimetic 20 mM, 30 min at RT, anti-Tn antibodies C3
Experimental: The Tn glycopeptide microarray was prepared as previously described^77. Briefly, the glycopeptides printed on the microarray is as listed (FIG. 2). Purified anti-Tn antibodies (diluted to […] for IgM, and […] for IgG and IgA detection) in TSM binding buffer (20 mM Tris-HCl, pH 7.4, 150 mM NaCl, 2 mM CaCl2), 2 mM MgCl2, with 1% BSA and 0.05% Tween-20) were added to the respective array slides for 1 h at RT. Alexa Fluor #488-labeled goat anti-human IgM or goat anti-human IgG, or FITC-labeled goat anti-human IgA antibody at 1:400 dilution in TSM binding buffer was used for detection of IgM, IgG, and IgA within purified anti-Tn antibodies. Slides were analyzed on a Genepix^# 4300A microarray scanner (Molecular Devices). Images were analyzed with quantitation software (GenePix® Pro Microarray Analysis Software Ver. 7, Molecular Devices). For inhibition assay, a purified Tn(+)IgA1 produced from CosmcKO Dakiki cells was utilized (See Generation of CosmcKO Dakiki cells using CRISPR-Cas9 system for generating the antibody) to inhibit anti-Tn antibodies binding to microarray and Tn(−)IgA1 produced from Dakiki cells as a […]. Purified anti-Tn antibodies (Cl, 10 mg/ml) in TSM binding buffer was preincubated with 1 mg of purified Tn(+)IgA1, or Tn(−)IgA1 for 30 min at RT. […] Heat map and correlation map of binding preferences were analyzed using GLAD (Glycan Array Dashboard).

## CO[C@H]1O[C@H](CO)[C@H](O)[C@H](O)[C@H]1NC(C)=O [α-methylGalNAc]
[1]; anti-Tn CICs purified from IgAN patients pretreated with 100 mM compound
  inhibition of proliferative activity of anti-Tn CICs from IgAN patients toward mesangial cells: inhibits their proliferative activity toward mesangial cells; also recorded: failed to stimulate human renal mesangial cells
[1]; anti-Tn CICs purified from healthy control pretreated with 100 mM compound
  inhibition of proliferative activity of anti-Tn CICs from healthy control sera toward mesangial cells: did not significantly inhibit mesangial cell proliferation
anti-Tn IgM
  inhibition of anti-Tn antibody (IgM) binding to Tn glycopeptide array: specifically inhibited binding of the anti-Tn IgM
